Consider 14 compounds from patent US7220775B2, “Compound useful for the treatment of neuropathic pain” (H. Lundbeck A/S, priority 2002, dated 2007).

Experiment [1] deals with NE transporter (rNE Uptk) (Rattus norvegicus, UniProt Q9WTR4). Nature of the experiment: Binding at native NE transporter. The note with it: Table 7, native transporter. How it is done: (§1) The binding properties of the compounds of the present invention were evaluated at one or more cloned receptors or native, tissue-derived transporters, using protocols described below.
(§2) The methods to determine binding affinity at native transporters are described in the following publications: 5HT transporter and NE transporter (Owens et al., 1997), and DA transporter (Javitch et al, 1984).

In experiment [2] the test system is NE transporter (rNE Uptk). Nature of the experiment: Binding at native NE transporter. The note with it: Table 8. Details: species or system rat. How it is done:
as §1, §2

Experiment [3] addresses T1, human GAL2 receptor (Homo sapiens, UniProt O43603).
T1 construct: expressed in transfected cells
T1 sequence (O43603 1-387): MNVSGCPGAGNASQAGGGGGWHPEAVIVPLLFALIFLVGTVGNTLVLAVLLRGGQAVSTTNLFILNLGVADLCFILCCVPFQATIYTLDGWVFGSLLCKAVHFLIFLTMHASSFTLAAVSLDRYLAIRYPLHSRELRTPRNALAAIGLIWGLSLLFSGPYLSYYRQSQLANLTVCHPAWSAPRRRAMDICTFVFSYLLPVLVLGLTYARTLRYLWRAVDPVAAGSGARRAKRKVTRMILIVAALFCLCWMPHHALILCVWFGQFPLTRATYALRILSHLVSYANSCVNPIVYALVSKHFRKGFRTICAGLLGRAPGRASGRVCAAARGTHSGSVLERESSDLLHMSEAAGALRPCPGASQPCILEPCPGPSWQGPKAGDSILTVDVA
Nature of the experiment: Radioligand binding at cloned human GAL2 receptor. The note with it: Table 2, pyrimidines, read-out: Ki (nM) GalR2. How it is done:
(§3) The present invention provides for a method of determining the binding affinity of a GAL3 antagonist, wherein the GAL3 antagonist is dissolved in a “suitable solvent”. A “suitable solvent” means one which permits the measurement of binding affinity of the GAL3 antagonist to the human GAL3 receptor at concentrations less than 1 μM, preferably less than 100 nM. Examples of solvents include, but are not limited to, DMSO, ethanol, N,N-dimethylacetamide, or water. For indolones, the preferred solvent is 3% DMSO (final concentration in the assay). For pyrimidines, the preferred solvent is 1% ethanol/0.09% polypuronic acid F-127 (final concentration in the assay). For any other type of compounds, the preferred solvent is the solvent which permits the measurement of binding affinity of a GAL3 antagonist at the lowest concentration. Once a suitable solvent is ascertained for the binding assay of the human GAL3 receptor, the same solvent is used in assays to determine the binding affinity for instance, at the GAL1 receptor.
(§4) LM(tk−) cells were stably transfected with the human GAL1 or GAL3 receptor. CHO cells were stably transfected with the human GAL2 receptor.
(§5) cDNAs for the human and rat GAL1, and human and rat GAL3 receptors were transfected with a G-418 resistant gene into the mouse fibroblast LM(tk−) cell line by a calcium phosphate transfection method (Cullen, 1987). Stably transfected cells were selected with G-418. Human and rat GAL2 receptors were similarly transfected into CHO cells.
Membranes were harvested from stably transfected LM(tk−) cells. Adherent cells were washed twice in ice-cold phosphate buffered saline (138 mM NaCl, 8.1 mM Na2HPO4, […] KCl, 1.2 mM KH2PO4, 0.9 mM CaCl2, 0.5 mM MgCl2, pH 7.4) and lysed by sonication in ice-cold sonication buffer (20 mM Tris-HCl, 5 mM EDTA, pH 7.7). […] Protein concentration was measured by the Bradford method (Bradford, 1976) using Pio-Rad Reagent, with bovine serum albumin as a standard. […]
(§6) Binding data were analyzed using nonlinear regression and statistical techniques available in the GraphPAD Prism package (San, Diego, Calif.). […]

Experiment [4] has as its target T2, human GAL1 receptor (Homo sapiens, UniProt P47211).
T2 construct: expressed in transfected cells
T2 sequence (P47211 1-349): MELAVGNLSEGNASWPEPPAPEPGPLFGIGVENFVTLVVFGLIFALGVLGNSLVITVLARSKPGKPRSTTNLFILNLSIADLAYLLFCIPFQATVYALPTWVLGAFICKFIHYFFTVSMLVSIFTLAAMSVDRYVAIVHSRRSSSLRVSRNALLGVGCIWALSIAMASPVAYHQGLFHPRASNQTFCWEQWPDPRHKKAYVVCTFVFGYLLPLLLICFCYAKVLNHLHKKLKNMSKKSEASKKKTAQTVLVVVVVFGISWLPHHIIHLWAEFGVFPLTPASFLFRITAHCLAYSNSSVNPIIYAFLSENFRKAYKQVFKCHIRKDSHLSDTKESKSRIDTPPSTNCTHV
The experiment can be described thus: Radioligand binding at cloned human GAL1 receptor. Conditions: Table 2, pyrimidines, read-out: Ki (nM) GalR1. How it is done:
as §3, §4, §5
Membranes were harvested from stably transfected LM(tk−) cells. Adherent cells were washed twice in ice-cold phosphate buffered saline (138 mM NaCl, 8.1 mM Na2HPO4, […] KCl, 1.2 mM KH2PO4, 0.9 mM CaCl2, 0.5 mM MgCl2, pH 7.4) and lysed by sonication in ice-cold sonication buffer (20 mM Tris-HCl, 5 mM EDTA, pH 7.7). Large particles and debris were cleared by low speed centrifugation (200×g, 5 min, 4° C.). Membranes were collected from the supernatant fraction by centrifugation (32,000×g, 18 min, 4° C.), washed with ice-cold hypotonic buffer, and collected again by centrifugation (32,000×g, 18 min, 4° C.). The final membrane pellet was resuspended by sonication into a small volume of ice-cold binding buffer (˜1 ml for every 5 plates: 10 mM NaCl, […] HEPES, 0.22 mM KH2PO4, 1.26 mM Cal2, 0.81 mM MgSO4, pH 7.4). Protein concentration was measured by the Bradford method (Bradford, 1976) using Pio-Rad Reagent, with bovine serum albumin as a standard. Membranes were held on ice for up to one hour and used fresh, or flash frozen and stored in liquid nitrogen. Membranes were prepared similarly from CHO cells. […]
as §6

The subject of experiment [5] is neuropathic rats (chronic constriction nerve injury). Nature of the experiment: Chronic constriction nerve injury model of neuropathic pain: thermal hyperalgesia (Thermal Plantar Test). It counts as in vivo, rat. Conditions: 10 mg/kg i.p. The procedure: (§7) The aim of this study was to assess the potential analgesic effects of Example 92 following intraperitoneal administration at the doses of 3, 10 and 30 mg/kg, respectively, in an animal model of neuropathic pain. A peripheral mononeuropathy was induced in the right hind limb of rats following a chronic constriction nerve injury (Bennett and Xie, 1988), and the development of mechanical allodynia and thermal hyperalgesia was monitored using established behavioral tests (Attal, N., et al., 1990; Hargreaves, K., et al., 1988).
(§8) Male Sprague-Dawley rats within the weight range of 200-225 g, and approximate age 7-9 weeks, were allowed to acclimate for a minimum of 6 days prior to the start of the behavioral testing.
(§9) All rats underwent a chronic constriction nerve injury, and of these, those that successfully developed allodynia and hyperalgesia were allocated to treatment groups.
(§10) There were 5 separate treatment groups (with a minimum of 10 rats per group). The treatment groups were as follows: • Group C received Morphine at 10 mg/kg (n=10) • Group D received Vehicle for Example 92* at 1 ml/kg (n=10) (* 100% DMSO) • Group E received Example 92 at 30 mg/kg (n=10) • Group F received Example 92 at 3 mg/kg (n=10) • Group G received Example 92 at 10 mg/kg (n=10)
(§11) The dose volume for all treatments was 1 ml/kg. Each rat received a single i.p. dose of the test substance, reference substance or vehicle on Day 12 PO. Test substance and vehicle dosing solutions were encoded (C-G) so that the observers were unaware of the identity of the treatment groups.
(§12) The behavioral tests (Von Frey filament and Thermal Plantar Tests—see below) were performed on all rats on 3 separate days prior to […], to establish baseline values. The pre-surgery baseline values were calculated as the mean of the last 2 days testing (the data from the first day of testing were not included as this was classed as part of the acclimating period). The sequence of tests was always mechanical allodynia (Von Frey Test) followed by thermal hyperalgesia (Thermal Plantar Test), with a minimum 5 min period allowed between the 2 tests.
Each rat was placed in a clear plastic chamber with a glass floor and allowed a short period to acclimatize to the new environment (approximately 5 min.). The animals were then challenged with a radiant Infrared (IR) heat source, directed at the plantar surface of the hind paw from below, and the withdrawal latency of both the ipsilateral and contralateral hind paws was evaluated. The infrared intensity was set at IR50 and the maximum length of exposure to the IR source was 18 s. Non-responding animals were allocated a withdrawal latency of 18 s.
The animals were surgically prepared over 5 days. […]

Experiment [6] shares this test system. The experiment can be described thus: Chronic constriction nerve injury model of neuropathic pain: mechanical allodynia (Von Frey filaments). It counts as in vivo, rat. Conditions: 10 mg/kg i.p. The procedure:
as §7, §8, §9, §10, §11, §12
Each animal was placed in a wire mesh cage and a series of Von Frey filaments (ranging from filament handle number 3.61 to 6.10) applied to the plantar surface of the hind paw, from below. The filaments were applied in ascending order (starting with the weakest force) and the withdrawal threshold for both the ipsilateral and contralateral hind paws was evaluated. Each filament was indented on the plantar surface of the foot to the point where it just started to bend, and this was repeated approximately 8-10 times per filament at a frequency of approximately 1 Hz. The withdrawal threshold was defined as the lowest force of two or more consecutive Von Frey filaments to elicit a reflex withdrawal response.
The animals were surgically prepared over 5 days. Each rat was anaesthetized with sodium pentobarbitone (60 mg/ml; 0.6 ml/kg dose, intraperitonealy; batch number 00230; expiry date 22 May 3) and then supplemented as necessary with isoflurane (1-3% in oxygen). The surface around the incision site was shaved and then sterilized with surgical spirit. Under aseptic conditions the right sciatic nerve was exposed by blunt dissection at mid-thigh level and approximately 1 cm of nerve was freed of adhering connective tissue. Four chromic cat gut (4.0) ligatures, spaced at approximately 1 mm inzervals, were then tied so as to barely constrict the nerve (as viewed under 40× magnification) to induce a peripheral mononeuropathy in the right hind limb. The overlying muscle and skin were then closed in layers using suture material, and the anesthesia discontinued. On recovery from anesthesia, the rats were re-housed with their cage mates on soft padded bedding overnight (to reduce the risk of infection) and subsequently on sawdust bedding following full recovery. The animals were allowed 4 full days to recover before the behavioral testing was recommenced. […]

`Cc1ccc(Nc2cc(N3CCCCC3)nc(N(C)CCc3c[nH]c4ccccc34)n2)cc1` [Example 11] returned a Ki in experiment [1] of more than 50 µM. In experiment [2], the “selectivity ratio rNE Uptk (Ki rNE Uptk / Ki hGAL3)” value is listed as more than 100.
For the compound `CN(CCc1c[nH]c2ccccc12)c1nc(Nc2ccc(F)c(F)c2)cc(N2CCCCC2)n1` [Example 15], in experiment [1], the Ki is more than 50 µM. Further, in experiment [2], the “selectivity ratio rNE Uptk (Ki rNE Uptk / Ki hGAL3)” value was more than 100.
For the compound `COc1cccc(Nc2cc(N3CCCCC3)nc(N(C)CCc3c[nH]c4ccccc34)n2)c1` [Example 17], in experiment [1], the affinity corresponds to a Ki of 18.3 µM. In addition, the “selectivity ratio rNE Uptk (Ki rNE Uptk / Ki hGAL3)” value in experiment [2] is more than 100.
As for `Cc1ccc(Nc2cc(N3CCCCC3)nc(N(C)CCc3ccccc3)n2)cc1` [Example 22], affinity in experiment [1] was put at a Ki of 13.1 µM. The “selectivity ratio rNE Uptk (Ki rNE Uptk / Ki hGAL3)” value in experiment [2] is reported as more than 100.
With `Cc1ccc(Nc2cc(N3CCCCC3)nc(N3CCN(c4ncccc4C(F)(F)F)CC3)n2)cc1` [Example 34], the Ki in experiment [1] was more than 50 µM. Also, in experiment [2], the “selectivity ratio rNE Uptk (Ki rNE Uptk / Ki hGAL3)” value was more than 100.
For `Cc1ccccc1Nc1cc(N(C)C)nc(Nc2ccccc2)n1` [Example 51], the Ki in experiment [3] and in experiment [4] was more than 5000 nM throughout.
In turn, `CN(C)c1cc(Nc2ccc(Cl)c(Cl)c2)nc(Nc2ccccc2)n1` [Example 60] yielded a Ki in experiment [1] of 46.1 µM.
As for `C[C@H]1CC2CC([C@@H]1Nc1cc(N(C)C)nc(Nc3ccccc3)n1)C2(C)C` (stereo partly shown) [Example 71], the Ki in experiment [4] was more than 5000 nM.
As for `Cc1ccc(Nc2cc(N(C)C)nc(N(C)CCc3c[nH]c4ccccc34)n2)cc1` [Example 77], in experiment [1], the Ki was determined as 28.1 µM. In addition, in experiment [2], the “selectivity ratio rNE Uptk (Ki rNE Uptk / Ki hGAL3)” value was more than 100.
The corresponding values for `O=C1C(=Nc2cccc(Cl)c2)c2ccccc2N1c1ccccc1` [Example 94, 3-[(3-CHLOROPHENYL)IMINO]-1-PHENYL-1,3-DIHYDRO-2H-INDOL-2-ONE] are 4.88 µM and more than 30.
As to `O=C1C(=Nc2ccc(C(F)(F)F)cc2)c2ccccc2N1c1ccccc1` [Example 95, 1-PHENYL-3-[[4-(TRIFLUOROMETHYL)PHENYL]IMINO]-1,3-DIHYDRO-2H-INDOL-2-ONE], the affinity in experiment [1], expressed as Ki, was 6.1 µM. In experiment [2], the “selectivity ratio rNE Uptk (Ki rNE Uptk / Ki hGAL3)” value is recorded as more than 100.
The corresponding values for `O=C1C(=Nc2ccc(Cl)cc2)c2ccccc2N1c1ccccc1` [Example 97, 3-[(4-CHLOROPHENYL)IMINO]-1-PHENYL-1,3-DIHYDRO-2H-INDOL-2-ONE] are 4.41 µM and more than 30.
In the same order, the values of `O=C1C(=Nc2ccc(Br)cc2)c2ccccc2N1c1ccccc1` [Example 98, 3-[(4-BROMOPHENYL)IMINO]-1-PHENYL-1,3-DIHYDRO-2H-INDOL-2-ONE] are 5.5 µM and more than 100.
As to `CN1CC[C@]23c4c5ccc(O)c4O[C@H]2[C@@H](O)C=C[C@H]3[C@H]1C5` [morphine, reference compound], the “effect on withdrawal latency of the nerve-injured hind paw to the thermal plantar device” value in experiment [5] (approx. 40 and 100 min PD) is “significantly increased”. Also, the “withdrawal latency to a noxious heat stimulus, nerve-injured and contralateral hind paws” value in experiment [5] (up to 100 min PD) is “significant increase”. In addition, the “contralateral paw effects (Von Frey)” value in experiment [6] (30 and 90 min) is “significant contralateral effects”. Moreover, the “effect on withdrawal threshold of the nerve-injured hind paw (Von Frey)” value in experiment [6] (up to 90 min PD) is reported as “significantly increased”.
